Measurements taken from paper PMC3261944, “The in Vitro Estrogenic Activities of Polyfluorinated Iodine Alkanes” (Environmental Health Perspectives, 2011).
Where two headings read alike, the source gives them in different places.

Tests used:
ER = target: T1, ER (Homo sapiens, UniProt P03372); assay: MVLN assay (estrogen-responsive luciferase reporter transactivation); type: cell-based; details: for Luciferase activity on coexposure with OHT: OHT 10 nM coexposed with 100 μM PFHxI, 100 μM PFOI, 100 μM PFBDI, 20 μM PFHxDI or 40 μM PFODI; for MVLN assay Relative potency: footnote: ratio of EC50 of E2 to that of test compound, text: based on EC20; for MVLN assay EC20: luciferase activity, 2 days, from Hill slope and EC50; for MVLN assay Maximum induction (%): percentage of the maximum induction (luciferase) of tested compound to that of E2, 2 days exposure; for Luciferase induction / estrogenic effect in the MVLN assay (in words): within the tested concentration ranges
T1 construct: This cell line was stably transfected with the luciferase reporter gene and estrogen-responsive element derived from the Xenopus vitellogenin A2 gene; endogenous in cells; host or cells: MVLN cells (provided by J.P. Giesy)
T1 sequence (P03372 1-595): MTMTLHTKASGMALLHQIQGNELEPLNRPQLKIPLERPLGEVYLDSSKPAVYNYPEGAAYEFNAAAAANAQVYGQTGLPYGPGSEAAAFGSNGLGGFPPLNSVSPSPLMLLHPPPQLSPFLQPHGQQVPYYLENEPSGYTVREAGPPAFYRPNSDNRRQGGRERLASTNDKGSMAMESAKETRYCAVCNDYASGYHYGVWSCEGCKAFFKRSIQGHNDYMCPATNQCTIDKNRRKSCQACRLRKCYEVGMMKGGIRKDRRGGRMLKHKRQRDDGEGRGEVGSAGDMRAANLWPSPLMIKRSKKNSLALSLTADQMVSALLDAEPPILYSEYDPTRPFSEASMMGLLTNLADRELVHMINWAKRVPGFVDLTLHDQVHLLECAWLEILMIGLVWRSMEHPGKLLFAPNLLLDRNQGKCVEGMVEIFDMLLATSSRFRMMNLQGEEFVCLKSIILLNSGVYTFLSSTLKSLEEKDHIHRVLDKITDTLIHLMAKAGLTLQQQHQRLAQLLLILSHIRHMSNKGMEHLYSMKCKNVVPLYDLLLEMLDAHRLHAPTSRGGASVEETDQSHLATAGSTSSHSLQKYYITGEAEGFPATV
Protocol: (§1) Cell culture. Human MCF-7BUS breast adenocarcinoma cells and MVLN cells were cultured in 100-mm culture dishes in a humidified atmosphere of 5% CO2 at 37°C. Cells were maintained in Dulbecco’s modified Eagle’s medium (DMEM)/F-12 (Hyclone, Logan, UT, USA) containing 10% fetal bovine serum, 100 U/mL streptomycin-penicillin, 2 mM L-glutamine, and 1% insulin-transferrin-selenium supplement (all from Gibco, Grand Island, NY, USA).
MVLN assay. The MVLN cell line was kindly provided by J.P. Giesy (Michigan State University, East Lansing, MI, USA). This cell line was stably transfected with the luciferase reporter gene and estrogen-responsive element derived from the Xenopus vitellogenin A2 gene. […] Cells were seeded in the interior 60 wells of a 96-well ViewPlate (Packard Instrument Company, Boston, MA, USA) at a density of 7 × 10^4 cells/well, starved in SF medium for 48 hr, and exposed to test compounds for 2 days. […] Luciferase activity was measured with the LucLite kit (Packard Instruments) according to the manufacturer’s protocol. We measured luminescence by microplate reader (Varioskan Flash) and integrated the luminescence signal for 10 sec. Total protein content was measured by the Bradford assay (Tiangen, Beijing, China) to normalize luminescent units. The results are given as relative luminescent unit per microgram protein. The maximal induction of positive control (corrected for solvent control, 0.1–0.2% ethanol) was set as 100%, and the responses of other chemicals were converted to a percentage of the maximum level. Three replicates were used in each experiment. The cytotoxicity of tested chemicals was examined by WST-1 kit in parallel and routinely observed under microscope to identify the exposure concentration range.
(§2) The concentration–response analyses were performed with four-parameter logistic curve regression analysis according to the following formula:
(§3) y = minimum + (maximum – minimum) ÷ [1 + (x/EC50)^Hill slope], [1]
(§4) where y is the response value, x is the log concentration of the test compound, and EC50 is the concentration that induces half of the maximum proliferation effect or luciferase activity.
EC50 values were calculated from this nonlinear regression model. EC20 were calculated as
ECx = [x/(100 – x)]^(1/Hill slope) × EC50, [2]

EGR3 = assay: Expression of estrogen-responsive gene EGR3 (quantitative RT-PCR); type: cell-based, Human; details: MCF-7 cells, 48 hr, vs 0.1% ethanol; 50 μM PFBI, PFHxI, PFOI, PFBDI, PFOA, PFOC, PFOB, 1-iodohexane, 4:2 FTI, 6:2 FTI; 40 μM PFDI, PFDoI, PFODI, 8:2 FTI, 10:2 FTI; 20 μM PFHxDI; 100 pM E2
Protocol: RNA isolation and reverse transcription polymerase chain reaction (RT-PCR). MCF-7BUS cells were seeded in six-well plates at the density of 1.0 × 10^6 cells per well, starved in SF medium for 48 hr, and exposed to test compounds for 48 hr. First, cells were rinsed twice with cold phosphate-buffered saline, and total RNA was isolated using Trizol reagent (Invitrogen Inc., Carlsbad, CA, USA) following the manufacturer’s protocol. The 260 nm and 280 nm absorbance reading of total RNA was performed using a Nanodrop spectrophotometer (Thermo Scientific, Waltham, MA, USA). The concentration of RNA was quantified by the reading at 260 nm.
We used a two-step quantitative RT-PCR to quantify gene expression. Total RNA was converted to cDNA using M-MLV (Moloney murine leukemia virus) reverse transcriptase (Promega, Madison, WI, USA) with oligo dT(15), following the manufacturer’s instructions. The final cDNA solution was diluted five times with DNase/RNase-free water (Gibco). Quantitative PCR was performed with a Stratagene MX3005 thermal cycler (Stratagene, La Jolla, CA, USA). PCR reaction mixtures (25 μL) contained 12.5 μL GoTaq Green Master Mix (Promega), 2 μL diluted cDNA, and 0.2 μM sense/antisense primers. The thermal cycle was 5 min at 95°C, followed by 45 cycles of 15 sec at 95°C, 30 sec at 55°C, and 30 sec at 72°C. The primer sequences of early growth response protein 3 (EGR3) were derived from [Terasaka et al. (2004)]. We designed the primers of internal gene β-actin and trefoil factor 1 (TFF1; pS2) with Primer Premier 5 software (Premier Biosoft International, Palo Alto, CA, USA). The primer sequences were as follows: for β-actin (NM_001101), 5´-CACTCT[…]TCCTTCC-3´ (forward) and 5´-[…][…]-3´ (reverse); for EGR3 (NM_004430), 5´-CCATGATTC[…]-3´ (forward) and 5´-GTGGATCTGCTTGTCTTTGAATG-3´ (reverse); and for TFF1 (NM_003225), 5´-AGAAGCG […]-3´ (forward) and 5´-[…][…]-3´ (reverse). The quantification of target gene expression was based on a comparative cycle threshold (Ct) value. We normalized the expression level of each target gene to its reference gene β-actin. The fold change of the target genes was analyzed by the 2^−ΔΔCt method ([Livak and Schmittgen 2001]). We used melting curve analysis and agarose gel electrophoresis to verify the correct PCR products.

MCF-7BUS cells = assay: E-screen assay (MCF-7BUS cell proliferation, WST-1); type: cell-based, Human; details: for EC50: Homo sapiens, MCF7/BUS, 144 h, read-out: E-screen EC50; for E-screen Maximum induction (%): percentage of the maximum proliferation effect of tested compound to that of E2, 6 days exposure; for E-screen Relative potency: ratio of EC50 of E2 to that of test compound; for Proliferation / estrogenic effect in the E-screen assay (in words): within the tested concentration ranges
Protocol: as §1
E-screen assay. MCF-7BUS cells were kindly provided by A.M. Soto and C. Sonnenschein (Tufts University School of Medicine, Boston, MA, USA). In response to ERα agonists, the mitotic effect leads to the proliferation of MCF-7BUS cells. […] Cells were trypsinized and plated into the interior 60 wells of 96-well plates at the density of 3,000 cells/well. Before each experiment, cells were starved in steroid-free (SF) medium for 48 hr to minimize the basal hormonal activity during assays. SF medium consisted of phenol red–free DMEM/F-12 (Hyclone) supplemented with 5% dextran-charcoal-treated fetal bovine serum (Hyclone), 100 U/mL streptomycin-penicillin, and 2 mM L-glutamine. […] We used a WST-1 proliferation kit (Roche Diagnostics, Mannheim, Germany) to assess proliferation after 6 days of exposure according to the kit instructions. The WST-1 assay is based on the enzymatic cleavage of the tetrazolium salt WST-1 to formazan by cellular mitochondrial dehydrogenases present in viable cells. The absorbance of the WST-1 solution was detected by a microplate reader (Varioskan Flash, Thermo Fisher Scientific, Waltham, MA, USA) at 450 nm, with the reference wave length at 690 nm. The cell proliferation effect was calculated from the solvent control (0.1% ethanol)-corrected absorbance and expressed as the percentage of maximal absorbance of the positive control. Three replicates were used in each experiment.
as §2, §3, §4
EC50 values were calculated from this nonlinear regression model. EC20 were calculated as […]

Row | Structure (SMILES) | EC50 (ER) [nM] | Luciferase activity on coexposure with OHT (ER) | MVLN assay Relative potency (ER) | MVLN assay EC20 (ER) [nM] | MVLN assay Maximum induction (%) (ER) | Luciferase induction / estrogenic effect in the MVLN assay (in words) (ER) | EGR3 mRNA expression, fold up-regulation (EGR3) [fold] | EC50 (MCF-7BUS cells) [nM] | E-screen Maximum induction (%) (MCF-7BUS cells) | E-screen Relative potency (MCF-7BUS cells) | Proliferation / estrogenic effect in the E-screen assay (in words) (MCF-7BUS cells) | EC50 (MCF-7BUS cells; MCF-7BUS proliferation, 6 days) [nM]
1 | FC(F)(F)C(F)(F)C(F)(F)C(F)(F)C(F)(F)C(F)(F)I [PFHxI, 1-iodoperfluorohexane] | 26700 | marked reduction of luciferase activity | 0.29 × 10^–6 | 14100 | 47% | induced luciferase activity in a dose-related manner | 2.4 | 630 | 99% | 4.9 × 10^–6 | produced full concentration–response curves | –
2 | FC(F)(I)C(F)(F)C(F)(F)C(F)(F)C(F)(F)C(F)(F)C(F)(F)C(F)(F)I [PFODI, Hexadecafluoro-1,8-diiodooctane] | 2870 | marked reduction of luciferase activity | 3.8 × 10^–6 | 1070 | 38% | – | 11.2 | 43.3 | 105% | 7.2 × 10^–5 | – | –
3 | FC(F)(I)C(F)(F)C(F)(F)C(F)(F)I [PFBDI, Octafluoro-1,4-diiodobutane] | 29600 | marked reduction of luciferase activity | 0.3 × 10^–6 | 13800 | 21% | – | 2.4 | 1450 | 97% | 2.2 × 10^–6 | – | –
4 | FC(F)(F)C(F)(F)C(F)(F)C(F)(F)C(F)(F)C(F)(F)CCI [6:2 FTI, 1H,1H,2H,2H-perfluorooctyl iodide] | – | – | – | – | NDe (The maximum relative luciferase activity was < 5%) | – | – | – | NDd (The maximum relative proliferation effect was < 7%) | – | – | –
5 | FC(F)(F)C(F)(F)C(F)(F)C(F)(F)CCI [4:2 FTI, 1H,1H,2H,2H-perfluorohexyl iodide] | – | – | – | – | NDe (The maximum relative luciferase activity was < 5%) | – | – | – | NDd (The maximum relative proliferation effect was < 7%) | – | – | –
6 | C[C@]12CC[C@@H]3c4ccc(O)cc4CC[C@H]3[C@@H]1CC[C@@H]2O [E2, 17β-estradiol, reference compound] | – | – | – | – | – | – | – | – | 100% | – | – | 0.00312
7 | FC(F)(F)C(F)(F)C(F)(F)C(F)(F)C(F)(F)C(F)(F)C(F)(F)C(F)(F)C(F)(F)C(F)(F)CCI [10:2 FTI, 1H,1H,2H,2H-perfluorododecyl iodide] | – | – | – | – | NDe (The maximum relative luciferase activity was < 5%) | – | – | – | NDd (The maximum relative proliferation effect was < 7%) | – | – | –
8 | FC(F)(F)C(F)(F)C(F)(F)C(F)(F)C(F)(F)C(F)(F)C(F)(F)C(F)(F)CCI [8:2 FTI, 1H,1H,2H,2H-perfluorodecyl iodide] | – | – | – | – | NDe (The maximum relative luciferase activity was < 5%) | – | – | – | NDd (The maximum relative proliferation effect was < 7%) | – | – | –
9 | FC(F)(F)C(F)(F)C(F)(F)C(F)(F)C(F)(F)C(F)(F)C(F)(F)C(F)(F)I [PFOI, 1-iodoperfluorooctane] | 35100 | marked reduction of luciferase activity | 0.2 × 10^–6 | 20400 | 25% | induced luciferase activity in a dose-related manner | 3.6 | 1150 | 101% | 2.7 × 10^–6 | produced full concentration–response curves | –
10 | FC(F)(I)C(F)(F)C(F)(F)C(F)(F)C(F)(F)C(F)(F)I [PFHxDI, Dodecafluoro-1,6-diiodohexane] | 1130 | marked reduction of luciferase activity | 1.1 × 10^–5 | 380 | 73% | – | 9.1 | 7.5 | 100% | 4.2 × 10^–4 | – | –
